Assay results taken from ChEMBL document CHEMBL1201862, “PubChem BioAssay data set” (2004).
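Tested at 5 concentrations; 48 h exposure; 96-well plates; endpoints linearly interpolated, else capped at highest concentration. GI50 = concentration required for 50% inhibition of growth.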 Calls of active or inactive are those of the source. Cut-off read from the data, not from the text of the source: active = GI50 up to about 1.1 µM and inactive = higher.

Columns and labels:
Test in all cases: DTP human tumour cell line panel, 48 h
SNB-19 = system: SNB-19
MDA-N = system: MDA-N
OVCAR-8 = system: OVCAR-8
A498 = system: A498
SF-295 = system: SF-295
SK-MEL-28 = system: SK-MEL-28
SK-MEL-2 = system: SK-MEL-2
MCF7 = system: MCF7
BT-549 = system: BT-549
UACC-257 = system: UACC-257
RXF 393 = system: RXF 393
SK-OV-3 = system: SK-OV-3
HCT-116 = system: HCT-116
HT-29 = system: HT-29
HCT-15 = system: HCT-15
U-251 = system: U-251
SN12C = system: SN12C
A549 = system: A549
SF-268 = system: SF-268

## COc1cc2c3c(c1O)C1(C=CC(=O)C=C1)CC3N(C)CC2 (centres undefined) [GLAZIOVINE]
SNB-19
  GI50: 14.3 µM (inactive)
MDA-N
  GI50: 10.7 µM (inactive)
OVCAR-8
  GI50: 10.4 µM (inactive)
A498
  GI50: 17.7 µM (inactive)
SF-295
  GI50: 12 µM (inactive)
SK-MEL-28
  GI50: 13.2 µM (inactive)
SK-MEL-2
  GI50: 10.7 µM (inactive)
MCF7
  GI50: 5.14 µM (inactive)
BT-549
  GI50: 5.78 µM (inactive)
UACC-257
  GI50: 13.4 µM (inactive)
RXF 393
  GI50: 6.14 µM (inactive)
SK-OV-3
  GI50: 31.3 µM (inactive)
HCT-116
  GI50: 3.81 µM (inactive)
HT-29
  GI50: 8.95 µM (inactive)
HCT-15
  GI50: 5.96 µM
U-251
  GI50: 4.26 µM (inactive)
SN12C
  GI50: 9.18 µM (inactive)
A549
  GI50: 22.4 µM (inactive)
SF-268
  GI50: 11 µM (inactive)

## CN1CCN(c2ccc3nc(C4=C(O)C(=O)c5c(nc(CCl)n5C)C4=O)[nH]c3n2)CC1
SNB-19
  GI50: 8.95 µM (inactive)
MDA-N
  GI50: 9.75 µM (inactive)
OVCAR-8
  GI50: 8.05 µM (inactive)
A498
  GI50: 11.5 µM (inactive)
SF-295
  GI50: 16.7 µM (inactive)
SK-MEL-28
  GI50: 19.3 µM (inactive)
SK-MEL-2
  GI50: 10 µM (inactive)
MCF7
  GI50: 8.89 µM (inactive)
BT-549
  GI50: 9.79 µM (inactive)
UACC-257
  GI50: 12.4 µM (inactive)
RXF 393
  GI50: 2.73 µM (inactive)
SK-OV-3
  GI50: 10.5 µM (inactive)
HCT-116
  GI50: 8.85 µM (inactive)
HT-29
  GI50: 11.6 µM (inactive)
HCT-15
  GI50: 38 µM
U-251
  GI50: 8.77 µM (inactive)
SN12C
  GI50: 9.98 µM (inactive)
A549
  GI50: 30 µM (inactive)
SF-268
  GI50: 14.9 µM (inactive)

## COC(=O)CN(CC(O)C(NC(C)=O)C(O)C=O)C(=O)OCc1ccccc1 (centres undefined)
SNB-19
  GI50: > 100 µM (inactive)
MDA-N
  GI50: > 100 µM (inactive)
OVCAR-8
  GI50: > 100 µM (inactive)
A498
  GI50: > 100 µM (inactive)
SF-295
  GI50: > 100 µM (inactive)
SK-MEL-28
  GI50: > 100 µM (inactive)
SK-MEL-2
  GI50: > 100 µM (inactive)
MCF7
  GI50: > 100 µM (inactive)
BT-549
  GI50: > 100 µM (inactive)
UACC-257
  GI50: > 100 µM (inactive)
RXF 393
  GI50: > 100 µM (inactive)
SK-OV-3
  GI50: > 100 µM (inactive)
HCT-116
  GI50: > 100 µM (inactive)
HT-29
  GI50: > 100 µM (inactive)
HCT-15
  GI50: > 31.6 µM
U-251
  GI50: > 100 µM (inactive)
SN12C
  GI50: > 100 µM (inactive)
A549
  GI50: > 100 µM (inactive)
SF-268
  GI50: > 100 µM (inactive)

## CC(CCC(=O)O)(c1cc(Br)c(O)c(Br)c1)c1cc(Br)c(O)c(Br)c1
SNB-19
  GI50: 57.9 µM (inactive)
MDA-N
  GI50: 70 µM (inactive)
OVCAR-8
  GI50: 78.2 µM (inactive)
A498
  GI50: 30.5 µM (inactive)
SF-295
  GI50: 98.4 µM (inactive)
SK-MEL-28
  GI50: 45 µM (inactive)
SK-MEL-2
  GI50: 52.4 µM (inactive)
MCF7
  GI50: 70.6 µM (inactive)
BT-549
  GI50: 38.4 µM (inactive)
UACC-257
  GI50: 76 µM (inactive)
RXF 393
  GI50: 54.8 µM (inactive)
SK-OV-3
  GI50: > 100 µM (inactive)
HCT-116
  GI50: 50.4 µM (inactive)
HT-29
  GI50: 93.1 µM (inactive)
HCT-15
  GI50: 54.3 µM
U-251
  GI50: 48.9 µM (inactive)
SN12C
  GI50: > 100 µM (inactive)
A549
  GI50: > 100 µM (inactive)
SF-268
  GI50: 59.7 µM (inactive)

## O=c1c2c3c(sc2nc2n1N=CN(c1ccc(Cl)cc1)C2)CCCC3
SNB-19
  GI50: > 100 µM (inactive)
MDA-N
  GI50: 56.6 µM (inactive)
OVCAR-8
  GI50: 83.8 µM (inactive)
A498
  GI50: 4.12 µM (inactive)
SF-295
  GI50: 70.1 µM (inactive)
SK-MEL-28
  GI50: > 100 µM (inactive)
SK-MEL-2
  GI50: 43.2 µM (inactive)
MCF7
  GI50: > 100 µM (inactive)
BT-549
  GI50: > 100 µM (inactive)
UACC-257
  GI50: 55.7 µM (inactive)
RXF 393
  GI50: 12.3 µM (inactive)
SK-OV-3
  GI50: > 100 µM (inactive)
HCT-116
  GI50: 26.9 µM (inactive)
HT-29
  GI50: 19.5 µM (inactive)
HCT-15
  GI50: 19.7 µM
U-251
  GI50: 54.1 µM (inactive)
SN12C
  GI50: > 100 µM (inactive)
A549
  GI50: 38.4 µM (inactive)
SF-268
  GI50: 20.8 µM (inactive)

## O=[N+]([O-])c1cccc2nc3ccccc3c(NCCC[N+]3([O-])CCCCC3)c12
SNB-19
  GI50: 0.638 µM (active)
MDA-N
  GI50: 0.176 µM (active)
OVCAR-8
  GI50: 1.85 µM (inactive)
A498
  GI50: 0.804 µM (active)
SF-295
  GI50: 3.06 µM (inactive)
SK-MEL-28
  GI50: 0.502 µM (active)
SK-MEL-2
  GI50: 0.179 µM (active)
MCF7
  GI50: 0.176 µM (active)
BT-549
  GI50: 0.501 µM (active)
UACC-257
  GI50: 0.244 µM (active)
RXF 393
  GI50: 0.647 µM (active)
SK-OV-3
  GI50: 1.02 µM (active)
HCT-116
  GI50: 0.261 µM (active)
HT-29
  GI50: 0.301 µM (active)
HCT-15
  GI50: 16 µM
U-251
  GI50: 0.289 µM (active)
SN12C
  GI50: 0.39 µM (active)
A549
  GI50: 0.521 µM (active)
SF-268
  GI50: 0.323 µM (active)
